Results as given in patent US20240262845A1, “PYRIDINIUM SALTS, METHODS OF MAKING, AND METHODS OF USE” (UNIVERSITY OF WYOMING, priority 2023, published 2024).
Counter-ions that a name gives are not always drawn.

Legend:
[1] = Fluorescence lifetime and emission measurements; format: physicochemical; settings: 10 μM in H2O, 375 nm excitation
Description: The emission spectra were generated by excitation of a 10 μM solution of either pyridinium salt 2a or pyridinium salt 2b in H2O. Analyses were performed at 375 nm excitation with an emission slit width of 5 nm and an excitation slit width of 5 nm. The emission wavelength was gathered from 400 nm to 600 nm.
FIGS. 9A-9D show fluorescence decay spectra of pyridinium salts 2a and 2b in selected solvents according to at least one embodiment of the present disclosure. Specifically, FIG. 9A is a fluorescence decay spectrum of pyridinium salt 2a in 1,2-dichloroethane, FIG. 9B is a fluorescence decay spectrum of pyridinium salt 2a in CH3CN, FIG. 9C is a fluorescence decay spectrum of pyridinium salt 2a in H2O, and FIG. 9D is a fluorescence decay spectrum of pyridinium salt 2b in H2O. The fluorescent decay spectra were generated with a 1-10 μM solution of pyridinium salt (10 μM for H2O and 1 μM for other solvents) using a GG420 long pass filter and a 375 nm excitation wavelength. The instrument response factor was measured using a highly diluted solution of LUDOX AS-30 colloidal silica in water and a ND1.0 filter. The concentration of LUDOX and the emission slit width were adjusted until the intensity of the instrument response function (IRF) was similar to the fluorescent decay intensity. The procedure given in the EasyLife X User's Manual was followed.

β2-Microglobulin = target: T1, β2-Microglobulin (Homo sapiens, UniProt P61769); assay: Photochemical labeling of β2-microglobulin with pyridinium salt (General Procedure B, LC/MS); format: biochemical; settings: trypsin digest
T1 construct: β2-microglobulin (Human Urine ≥98% (SDS-PAGE)); purchased Lee Biosolutions; host or cells: human urine
Description: General Procedure B: Photochemical Irradiation of Peptides and Proteins: To a 2 mL Pyrex LC/MS vial (Thermo model #03-391-39) were sequentially added solutions containing the desired biomolecule, glutathione (GSH), pyridinium salt, and ammonium acetate (NH4OAc). The resulting solution was diluted to a final volume of 500 μL and then sparged using nitrogen for a minimum of 30 minutes prior to irradiation. The actively sparging solution was then placed in an EvoluChem™ PhotoRedOx Box photoreactor that was equipped with a Kessil, PR160 427 nm LED Lamp and was then irradiated (100% lamp intensity) for the designated time at room temperature while maintaining active sparging. The resultant reaction mixture was then analyzed directly by LC/MS. Analysis of labeling outcomes using LC/MS was performed either by extracted ion chromatogram intensities (method A) or by integrating the area under the peaks associated with peptide content (method B). […]
Labeling of β2-Microglobulin with Pyridinium Salt 2a (β2-Microglobulin-2a Conjugate). […] The reaction mixture was directly analyzed by LC/MS using method A and was estimated to have proceeded with 88% conversion with a >20:1 mono:di labeled ratio and 7% glutathionylation of all unlabeled and labeled protein content. β2-Microglobulin-2a conjugate (retention time (Tr)=3.26-4.70 min). […]

Row | relative fluorescence quantum yield ΦF1 of pyridinium salt 2b: pyridinium salt 2a [1] | Structure (SMILES) | Modified Trp (β2-Microglobulin)
1 | 3.3 | COc1ccc2cc(-c3cc(C)[n+](N(C)C(=O)OCCCCC[C@H]4SC[C@H]5NC(=O)N[C@H]54)c(C)c3)ccc2c1 (stereo in doubt) [pyridinium salt 2b, 4-(6-methoxynaphthalen-2-yl)-2,6-dimethyl-1-(methyl(((5-((3aR,4R,6aS)-2-oxohexahydro-1H-thieno[3,4-d]imidazol-4-yl)pentyl)oxy)carbonyl)amino)pyridin-1-ium tetrafluoroborate] | 
2 |  | COC(=O)N(C)[n+]1c(C)cc(-c2ccc3cc(OC)ccc3c2)cc1C [pyridinium salt 2a, 1-((methoxycarbonyl)(methyl)amino)-4-(6-methoxynapthalen-2-yl)-2,6-dimethylpyridin-1-ium tetrafluoroborate] | Trp-60
